The text below walks through data of US20250067726A1, “METHOD FOR ANALYZING PERSONALIZED ANTI-CANCER DRUGS IN CELL CULTURES” (PreComb Therapeutics AG, priority 2022, published 2025).

Molecules are shown by their SMILES. Read-outs that look alike come from different tables or passages of the source.

The nature of data set [1]: Pharmacokinetic parameters (t1/2, Cmax, tmax) identified for the drug panel. As to conditions: human, in vivo; Table 1, twice the half-life, main determinant for in vitro incubation time. The source says: The elimination half-life or drug half-life tin generally refers to the time required for half the dose of drug administered to be removed from the body. For those drugs to be tested, where a suitable tin can not be taken from the literature, and/or for the purpose of grouping or forming panels of drugs, tin values may be determined as follows.
In accordance with the existing guidelines, the rate (Cmax, tmax) and extent (AUC) of absorption of drug from a test formulation (vs. reference formulation) is evaluated using a single dose study in healthy volunteer subjects, followed by measuring the blood/plasma concentration of the parent drug and any major active metabolites (if present) for a time period of ≥3 t½.
For a determination of the parameters, blood samples are taken at 0, 1, 2, 3, 4, 5, 6, 7, and 8 hours, optionally followed by 10 and 12, 18, 24, 30, 36, and 42 hours after administration. As a general rule, the more frequently samples around the expected time of the maximum concentration are taken, the more accurate the value of t½ (and tmax and Cmax) are. The above determinations can be made in several individuals, and median values can be determined as parameter e.g. for grouping (see below), and testing.
Grouping or pre-selection of drugs can be achieved based on one or more of the following parameters that are known to the person of skill: • i) Cmax—the value defining the maximal concentration used, • ii) t½, —time until 1/2 of the drug is cleared by the patient/cells (half-life), • iii) Duration of action [h] (length of time that particular drug is effective), • iv) Elimination time [h] (time it takes for the concentration of the drug in the plasma or the total amount in the body to be removed), • v) Area under the curve (AUC) [ng*h/ml], • vi) Clearance (CL) [L/h]

The conditions of data set [2]: cited from earlier work; for Cmax Human: Table 2, human.
For data set [3], the system named is Panc-1 cancer cells and NIH3T3 fibroblasts microtumor. As to the kind of experiment: Redosing example: pancreatic cancer microtumor model, drug response. In kind it is cell-based. As to conditions: dosed once for 7 h or re-dosed for another 7 h with 48 h recovery in between; four independent experiments. The procedure: A pancreatic cancer microtumor model consisting of Panc-1 cancer cells and NIH3T3 fibroblasts were treated with either Gemcitabine or 5-Flurouracil. Both drugs were dosed either once for 7 hours or re-dosed for another 7 h with a 48 h recovery time in between (four independent experiments).
A pancreatic cancer microtumor model consisting of Panc-1 cancer cells and NIH3T3 fibroblasts were treated with either Gemcitabine (GEM) and/or 5-Flurouracil (5-FU). Both drugs were dosed either once for 7 hours or re-dosed for another 7 h with a 48 h recovery time in between (four independent experiments).

In data set [1], `CC(=O)O[C@@]12CO[C@@H]1C[C@H](O)[C@@]1(C)C(=O)[C@H](O)C3=C(C)[C@@H](OC(=O)[C@H](O)[C@@H](NC(=O)OC(C)(C)C)c4ccccc4)C[C@@](O)([C@@H](OC(=O)c4ccccc4)[C@H]21)C3(C)C` [Docetaxel] returned a twice the half-life (2 × t1/2) of 4920 min. In addition, the t1/2 is listed as 41 h in data set [2] (Table 1, elimination half-life) and 41 h in data set [2] (Table 2). In addition, the “Cmax Human” value in data set [2] is 1.5 to 2.5 µg/mL.
`C#Cc1cccc(Nc2ncnc3cc(OCCOC)c(OCCOC)cc23)c1` [Erlotinib] showed a twice the half-life (2 × t1/2) in data set [1] of 2930 min. The “Cmax Human” value in data set [2] was 2.3 µg/mL. In addition, in data set [2] (Table 2), the tmax is 5.5 h.
For `O=c1[nH]cc(F)c(=O)[nH]1` [Fluorouracil], the twice the half-life (2 × t1/2) in data set [1] was 36 min. Also, the t1/2 in data set [2] (Table 1, elimination half-life) is listed as 0.3 h. In data set [3], the “Efficiency on redosing versus single dosing” value is given as “did not improve”.
In the case of `Nc1ccn([C@@H]2O[C@H](CO)[C@@H](O)C2(F)F)c(=O)n1` [Gemcitabine], the twice the half-life (2 × t1/2) in data set [1] came out at 27.6 min. In addition, the t1/2 in data set [2] (Table 1, elimination half-life) is 0.23 h; in data set [2] (Table 2), 0.23 h. Besides, the “Cmax Human” value in data set [2] was 18.5 µg/mL. In data set [3], the “Efficiency on redosing versus single dosing” value was “increased efficiency”.
Turning to `O=C(c1cc(Cc2n[nH]c(=O)c3ccccc23)ccc1F)N1CCN(C(=O)C2CC2)CC1` [Olaparib], the twice the half-life (2 × t1/2) in data set [1] is 1430 min. For the same compound, the t1/2 in data set [2] (Table 1, elimination half-life) is 11.9 h; in data set [2] (Table 2), 11.9 h. For the same compound, the “Cmax Human” value in data set [2] is 5.8 µg/mL. In addition, the tmax in data set [2] (Table 2) is 1.3 h.
For `O=C1[O][Pt]2([NH][C@@H]3CCCC[C@H]3[NH]2)[O]C1=O` [Oxaliplatin], the “Cmax Human” value in data set [2] is 1.2 µg/mL. For the same compound, the t1/2 in data set [2] (Table 2) is recorded as 1.86 h.
Regarding `Nc1nc2[nH]cc(CCc3ccc(C(=O)N[C@@H](CCC(=O)O)C(=O)O)cc3)c2c(=O)[nH]1` [Pemetrexed], in data set [1], the twice the half-life (2 × t1/2) was found to be 528 min. Moreover, the t1/2 in data set [2] (Table 1, elimination half-life) is recorded as 4.4 h; in data set [2] (Table 2), 4.4 h. Moreover, the “Cmax Human” value in data set [2] was 90 to 150 µg/mL.
Take `CC(=O)Nc1cccc(-n2c(=O)n(C3CC3)c(=O)c3c(Nc4ccc(I)cc4F)n(C)c(=O)c(C)c32)c1` [Trametinib]: the twice the half-life (2 × t1/2) in data set [1] stood at 576 min. Also, the t1/2 is 4.8 h in data set [2] (Table 1, elimination half-life) and 4.35 h in data set [2] (Table 2). The “Cmax Human” value in data set [2] is 0.022 µg/mL.
